According to patent US20250109146A1, “BRIDGED RING-SUBSTITUTED HETEROARYL-PYRAN DERIVATIVE, AND USE THEREOF” (priority 2022, published 2025):
Structures can show the parent of a compound that is named as a salt.

How the values were obtained:
[1] = system: p-ERK in KRAS^G12D mutant AsPC-1 cells; assay: Assay of p-ERK inhibition in AsPC-1 cells (HTRF); type: cell-based; conditions: HTRF method, 1 hour incubation with compound
Description: • 1) ASPC-1 cells were inoculated in a transparent 96-well cell culture plate, and each well contained 80 μL of cell suspension and 8000 cells. The cell plate was inoculated in a carbon dioxide incubator at 37° C. overnight; • 2) After completion of the incubation, the cell supernatant was discarded. […] 2 μL of the compound was weighed and added to 78 μL of a cell starvation medium. After the mixture was mixed thoroughly, 20 μL of the solution of compound was weighed and added to the corresponding well of the cell plate. […] 50 μL of cell lysate was added to each well. […] The mixture was incubated at room temperature for 4 hours; • 7) After completion of the incubation, HTRF was read with multi-label analyzer: excitation: 320 nm, emission: 615 nm, 665 nm.

[2] = system: p-ERK in KRAS^G12D mutant AGS cells; assay: Assay of p-ERK inhibition in AGS cells (HTRF); type: cell-based; conditions: Homo sapiens, 3 hours incubation with compound
Description: • 1) AGS cells were inoculated in a transparent 96-well cell culture plate, and each well contained 80 μL of cell suspension and 10000 cells. […] 80 μL of medium containing 0.02% serum was added to each well. The cell plate was incubated in a carbon dioxide incubator at 37° C. overnight; • 3) 2 μL of the compound was weighed and added to 78 μL of the cell medium. After the mixture was mixed thoroughly, 20 μL of the solution of compound was weighed and added to the corresponding well of the cell plate. […] 50 μL of 1× cell lysate was added to each well. […] The mixture was incubated at room temperature for at least 4 hours; • 7) After completion of the incubation, HTRF was read with multi-label analyzer: excitation: 320 nm, emission: 615 nm, 665 nm; • 8). IC50 of the compound to be assayed was calculated. […]
• 1) AGS cells were inoculated in a transparent 96-well cell culture plate, and each well contained 80 μL of cell suspension and 10000 cells. […] The mixture was incubated at room temperature for at least 4 hours; • 7) After completion of the incubation, HTRF was read with multi-label analyzer: excitation: 320 nm, emission: 615 nm, 665 nm; • 8). IC50 of the compound to be assayed was calculated.

SMILES	IC50 [1]	IC50 [2]
CC#Cc1cc(N)c(F)c([C@@H]2Cc3nc(OC[C@]45C=CCN4CCC5)nc(N4CC5CCC(C4)N5)c3CO2)c1C(F)(F)F [Compound 10 hydrochloride]	1.1 nM	
C#Cc1c(F)ccc2cc(N)cc(C3Cc4nc(OC[C@@]56CCCN5C[C@H](F)C6)nc(N5CC6CCC(C5)N6)c4CO3)c12 (stereo partly drawn) [Compound 3 hydrochloride]		64.6 nM
CC#Cc1cc(N)c(F)c([C@H]2Cc3nc(OC[C@]45CCCN4C/C(=C\F)C5)nc(N4CC5CCC(C4)N5)c3CO2)c1C(F)(F)F [Compound 11 formate]	0.9 nM	
